According to patent US20030198674A1, “Controlled release pharmaceutical dosage forms of a cholesteryl ester transfer protein inhibitor” (priority 2002, published 2003):
Converted amounts (≈) assume the structure as drawn. Like-named read-outs stand apart in the source and are kept apart here.

Assays:
[1] = Plasma half-life of Drug A; assay type: in vivo
[2] = Single-dose plasma Drug A concentration vs. time curve fitted to 2-compartment PK model; assay type: in vivo, Human
Method: Pharmacokinetic (PK) constants were derived by fitting this curve to a 2-compartment PK model, assuming a small intestinal transit time of 4 hr, and a gastric emptying time of 15 min.

[3] = Aqueous solubility of Drug A; assay type: physicochemical
[4] = 120 mg Drug A, fitted 2-compartment model

CCOC(=O)N1c2ccc(C(F)(F)F)cc2[C@@H](N(Cc2cc(C(F)(F)F)cc(C(F)(F)F)c2)C(=O)OC)C[C@H]1CC [Drug A, [2R,4S] 4-[(3,5-bis-trifluoromethyl-benzyl)-methoxycarbonyl-amino]-2-ethyl-6-trifluoromethyl-3,4-dihydro-2H-quinoline-1-carboxylic acid ethyl ester]
half-life ([1]; read-out: additional long terminal elimination half-life): 100 to 200 h
half-life ([1]; read-out: effective plasma terminal half-life (t1/2)): 30 to 70 h
Absorption Ka [2, 4]: 2.27 h⁻¹
K12 [2, 4]: 0.017 h⁻¹
K21 [2, 4]: 0.002 h⁻¹
Kel (Elimination Rate Constant) ([2]; calculated from Cl/Vd): 0.042 h⁻¹
clearance ([2]; human, plasma, oral, 120 mg, read-out: Clearance (Cl) (converted)): 218 mL/min
Vd ([2]; human, plasma, oral, 120 mg, read-out: Volume of distribution (Vd)): 174 L
aqueous solubility [3]: about 0.04 microgm/ml
solubility ([3]; water (aqueous), accurate measurements, crystalline): ~0.01 µg/mL (≈ 0.0167 µM)
solubility ([3]; water, read-out: solubility in water): < 1 µg/mL
